Experimental data reported in ChEMBL document CHEMBL1201862, “PubChem BioAssay data set” (2004).
Calls of active or inactive are those of the source.

Tests used:
[1] = biological target: T1, Histone-lysine N-methyltransferase NSD2 (Homo sapiens, UniProt O96028); assay type: biochemical
T1 sequence (O96028 whole entry): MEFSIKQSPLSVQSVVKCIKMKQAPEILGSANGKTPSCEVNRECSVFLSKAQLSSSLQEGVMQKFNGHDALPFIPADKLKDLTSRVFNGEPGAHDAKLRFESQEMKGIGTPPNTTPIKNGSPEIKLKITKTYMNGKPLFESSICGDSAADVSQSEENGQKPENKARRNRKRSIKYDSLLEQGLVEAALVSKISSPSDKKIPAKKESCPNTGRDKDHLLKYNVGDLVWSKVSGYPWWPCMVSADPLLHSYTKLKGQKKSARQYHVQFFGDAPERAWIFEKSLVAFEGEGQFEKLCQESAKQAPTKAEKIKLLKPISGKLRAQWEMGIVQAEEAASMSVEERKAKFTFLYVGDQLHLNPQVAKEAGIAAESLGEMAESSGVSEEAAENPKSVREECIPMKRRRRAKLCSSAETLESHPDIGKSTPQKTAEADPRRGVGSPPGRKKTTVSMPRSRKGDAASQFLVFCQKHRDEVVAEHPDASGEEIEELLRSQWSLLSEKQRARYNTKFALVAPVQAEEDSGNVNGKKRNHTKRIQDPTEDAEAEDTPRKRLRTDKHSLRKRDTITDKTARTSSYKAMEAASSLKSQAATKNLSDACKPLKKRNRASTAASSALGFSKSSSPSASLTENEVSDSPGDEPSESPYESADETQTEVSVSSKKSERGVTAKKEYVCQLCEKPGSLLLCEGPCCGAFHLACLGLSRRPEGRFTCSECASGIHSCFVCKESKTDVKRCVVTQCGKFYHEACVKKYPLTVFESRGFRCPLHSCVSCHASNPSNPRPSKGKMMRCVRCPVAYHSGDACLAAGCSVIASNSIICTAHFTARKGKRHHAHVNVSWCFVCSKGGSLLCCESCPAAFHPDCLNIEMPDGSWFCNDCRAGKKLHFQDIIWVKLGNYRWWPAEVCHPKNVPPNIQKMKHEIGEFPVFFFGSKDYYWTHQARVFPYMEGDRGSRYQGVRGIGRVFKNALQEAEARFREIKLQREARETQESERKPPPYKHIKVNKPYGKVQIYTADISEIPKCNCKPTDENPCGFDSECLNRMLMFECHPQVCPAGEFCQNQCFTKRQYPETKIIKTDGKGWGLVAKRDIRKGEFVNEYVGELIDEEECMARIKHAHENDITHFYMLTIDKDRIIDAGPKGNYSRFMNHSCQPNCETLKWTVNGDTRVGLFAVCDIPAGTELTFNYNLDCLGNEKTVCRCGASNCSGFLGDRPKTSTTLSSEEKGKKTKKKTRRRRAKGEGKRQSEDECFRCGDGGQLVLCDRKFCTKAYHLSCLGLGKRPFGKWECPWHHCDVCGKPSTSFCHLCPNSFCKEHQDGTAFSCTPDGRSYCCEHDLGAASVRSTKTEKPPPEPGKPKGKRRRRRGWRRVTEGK

[2] = biological target: DNA (cytosine-5)-methyltransferase 1 (Homo sapiens, UniProt P26358); experiment: DNMT1 methyltransferase inhibitors, confirmation, biochemical, fluorescent molecular beacon (AID 602386); assay type: functional
DNA (cytosine-5)-methyltransferase 1, sequence (P26358 whole entry): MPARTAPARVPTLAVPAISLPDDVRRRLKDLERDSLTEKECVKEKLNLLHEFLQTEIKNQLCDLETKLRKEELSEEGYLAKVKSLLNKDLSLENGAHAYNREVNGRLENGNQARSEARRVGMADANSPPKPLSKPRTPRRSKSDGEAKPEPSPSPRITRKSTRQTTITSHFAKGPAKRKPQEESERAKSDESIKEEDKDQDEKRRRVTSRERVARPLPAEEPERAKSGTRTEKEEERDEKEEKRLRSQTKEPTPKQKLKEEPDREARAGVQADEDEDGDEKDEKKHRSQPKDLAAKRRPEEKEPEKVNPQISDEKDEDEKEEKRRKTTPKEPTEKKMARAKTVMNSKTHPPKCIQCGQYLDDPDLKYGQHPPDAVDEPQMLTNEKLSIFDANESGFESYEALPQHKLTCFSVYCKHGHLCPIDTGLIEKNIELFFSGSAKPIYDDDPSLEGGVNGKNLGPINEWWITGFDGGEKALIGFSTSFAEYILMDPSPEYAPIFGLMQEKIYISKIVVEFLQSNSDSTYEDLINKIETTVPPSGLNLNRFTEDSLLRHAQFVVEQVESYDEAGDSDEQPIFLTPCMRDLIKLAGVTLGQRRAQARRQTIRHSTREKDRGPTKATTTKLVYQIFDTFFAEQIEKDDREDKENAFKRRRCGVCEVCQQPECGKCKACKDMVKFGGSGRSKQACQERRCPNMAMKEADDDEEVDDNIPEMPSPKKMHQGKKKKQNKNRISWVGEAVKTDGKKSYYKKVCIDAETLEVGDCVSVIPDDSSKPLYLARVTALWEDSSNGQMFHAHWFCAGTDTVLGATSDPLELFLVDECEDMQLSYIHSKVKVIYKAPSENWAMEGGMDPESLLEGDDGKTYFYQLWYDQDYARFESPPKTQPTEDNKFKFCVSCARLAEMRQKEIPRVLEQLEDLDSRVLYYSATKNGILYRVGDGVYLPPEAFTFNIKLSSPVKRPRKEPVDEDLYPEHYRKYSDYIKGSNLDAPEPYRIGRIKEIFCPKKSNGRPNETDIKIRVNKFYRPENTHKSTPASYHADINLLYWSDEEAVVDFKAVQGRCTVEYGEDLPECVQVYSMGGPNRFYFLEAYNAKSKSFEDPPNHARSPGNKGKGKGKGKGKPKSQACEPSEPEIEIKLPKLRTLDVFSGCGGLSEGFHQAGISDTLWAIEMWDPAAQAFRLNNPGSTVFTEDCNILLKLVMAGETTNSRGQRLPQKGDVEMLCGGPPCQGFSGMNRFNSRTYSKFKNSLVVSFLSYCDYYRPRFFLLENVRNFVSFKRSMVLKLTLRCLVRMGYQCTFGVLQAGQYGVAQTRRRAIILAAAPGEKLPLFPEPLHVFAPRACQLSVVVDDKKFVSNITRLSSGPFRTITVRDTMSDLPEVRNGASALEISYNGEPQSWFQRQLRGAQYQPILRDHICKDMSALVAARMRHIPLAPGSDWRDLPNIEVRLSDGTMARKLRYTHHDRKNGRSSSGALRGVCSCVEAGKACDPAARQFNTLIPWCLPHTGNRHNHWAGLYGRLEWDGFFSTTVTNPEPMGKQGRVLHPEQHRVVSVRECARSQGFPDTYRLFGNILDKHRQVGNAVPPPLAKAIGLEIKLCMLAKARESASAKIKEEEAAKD

[3] = biological target: Multidrug resistance protein CDR2 (Candida albicans (strain SC5314 / ATCC MYA-2876) (Yeast), UniProt P78595); experiment: CaCDR2 efflux pump inhibitors in yeast, dose response, S. cerevisiae AD1-8u, singleplex, Cherry Pick2 set (AID 623994); assay type: functional; conditions: read-out: EC50_MICROM
Multidrug resistance protein CDR2, sequence (P78595 whole entry): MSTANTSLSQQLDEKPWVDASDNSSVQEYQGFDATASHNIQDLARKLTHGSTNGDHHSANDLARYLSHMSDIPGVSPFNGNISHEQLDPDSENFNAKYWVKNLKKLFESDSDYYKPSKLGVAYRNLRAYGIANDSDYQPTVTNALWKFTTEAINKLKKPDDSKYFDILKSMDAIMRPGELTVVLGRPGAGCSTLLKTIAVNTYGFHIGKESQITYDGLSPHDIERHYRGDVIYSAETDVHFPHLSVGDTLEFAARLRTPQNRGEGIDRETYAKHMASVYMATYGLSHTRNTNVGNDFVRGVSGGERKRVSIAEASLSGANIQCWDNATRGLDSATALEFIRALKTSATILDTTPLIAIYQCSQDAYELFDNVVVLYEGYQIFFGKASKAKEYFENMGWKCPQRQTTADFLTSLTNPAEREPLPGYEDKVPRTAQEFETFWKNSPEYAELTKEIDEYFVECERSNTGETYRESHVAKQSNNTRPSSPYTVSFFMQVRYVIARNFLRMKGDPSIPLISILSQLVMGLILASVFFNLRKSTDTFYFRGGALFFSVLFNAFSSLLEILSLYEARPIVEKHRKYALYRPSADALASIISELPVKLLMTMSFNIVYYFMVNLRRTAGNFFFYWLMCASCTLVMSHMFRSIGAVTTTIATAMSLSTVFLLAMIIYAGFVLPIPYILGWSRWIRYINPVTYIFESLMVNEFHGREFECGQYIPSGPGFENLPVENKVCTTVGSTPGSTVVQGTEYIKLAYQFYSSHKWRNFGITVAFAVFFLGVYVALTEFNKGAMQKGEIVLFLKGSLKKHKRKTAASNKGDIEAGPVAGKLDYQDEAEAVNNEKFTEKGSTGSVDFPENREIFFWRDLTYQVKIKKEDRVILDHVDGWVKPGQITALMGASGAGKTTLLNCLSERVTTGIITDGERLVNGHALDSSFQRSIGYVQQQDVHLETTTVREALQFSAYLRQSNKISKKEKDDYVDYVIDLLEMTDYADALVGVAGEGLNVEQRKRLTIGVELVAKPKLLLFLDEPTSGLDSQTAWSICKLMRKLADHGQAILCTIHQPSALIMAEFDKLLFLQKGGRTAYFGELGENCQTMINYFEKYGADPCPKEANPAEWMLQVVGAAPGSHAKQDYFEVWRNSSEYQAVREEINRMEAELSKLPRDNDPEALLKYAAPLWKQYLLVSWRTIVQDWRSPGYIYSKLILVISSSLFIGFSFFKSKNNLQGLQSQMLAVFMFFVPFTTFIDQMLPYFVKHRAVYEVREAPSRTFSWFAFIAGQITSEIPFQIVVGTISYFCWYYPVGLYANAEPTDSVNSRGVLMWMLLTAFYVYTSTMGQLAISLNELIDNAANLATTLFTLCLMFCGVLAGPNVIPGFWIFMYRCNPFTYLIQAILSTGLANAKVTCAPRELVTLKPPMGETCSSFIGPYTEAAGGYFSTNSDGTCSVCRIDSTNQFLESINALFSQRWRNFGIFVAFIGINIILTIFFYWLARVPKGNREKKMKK

Beta-lactamase [4] = biological target: T2, Beta-lactamase (Pseudomonas aeruginosa, UniProt Q79MP6); experiment: IMP-1 metallo-beta-lactamase inhibitors, dose response, selectivity assay for VIM-2 inhibitor project, biochemical, epi-absorbance (AID 1920)
T2 sequence (Q79MP6 whole entry): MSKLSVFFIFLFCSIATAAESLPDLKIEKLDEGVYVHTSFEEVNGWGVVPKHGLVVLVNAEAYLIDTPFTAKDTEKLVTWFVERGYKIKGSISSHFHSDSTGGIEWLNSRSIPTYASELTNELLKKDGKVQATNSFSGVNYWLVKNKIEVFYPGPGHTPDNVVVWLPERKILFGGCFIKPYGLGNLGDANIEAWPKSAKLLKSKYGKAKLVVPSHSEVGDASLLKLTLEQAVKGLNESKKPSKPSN

Beta-lactamase [5] = biological target: Beta-lactamase (Salmonella choleraesuis (strain SC-B67), UniProt Q5J463); experiment: Epi-absorbance-based counterscreen for selective VIM-2 inhibitors: dose response biochemical high throughput screening assay to identify inhibitors of TEM-1 serine-beta-lactamase.
Beta-lactamase (Salmonella choleraesuis (strain SC-B67), UniProt Q5J463), sequence (Q5J463 whole entry): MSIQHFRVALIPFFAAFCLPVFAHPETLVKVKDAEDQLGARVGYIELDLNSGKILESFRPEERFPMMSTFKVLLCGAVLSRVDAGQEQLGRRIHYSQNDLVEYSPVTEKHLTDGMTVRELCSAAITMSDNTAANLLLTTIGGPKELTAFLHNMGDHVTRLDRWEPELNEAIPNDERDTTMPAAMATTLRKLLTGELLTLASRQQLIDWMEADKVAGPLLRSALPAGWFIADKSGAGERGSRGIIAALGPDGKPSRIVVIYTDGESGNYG

Beta-lactamase [6] = biological target: T2, Beta-lactamase; experiment: […] counterscreen for selective VIM-2 inhibitors: dose response biochemical high throughput screening assay to identify inhibitors of IMP-1 metallo-beta-lactamase.

`N=C1/C(=C/c2coc3ccccc3c2=O)C(=O)N=C2SC(c3ccco3)=NN12` was tested. Which AC50 [1] did it give?
Its AC50 is 4.93 µM (active).

And the IC50 [2]?
The IC50 was 11.6 µM (active).

With `O=C(NCCC1=CCCCC1)C1CCC(CNc2[nH]c(=S)nc3ccccc23)CC1` (stereo unspecified) as the compound, how does the EC50 [3] read?
The EC50 was 72.6 µM (active).

Which results are given for `COCC(=O)Nc1nnc(SCC(=O)NCc2cccs2)s1`?
IC50 (Beta-lactamase [4]): > 59.6 µM (inactive); IC50 (Beta-lactamase [5]): > 59.6 µM (inactive); IC50 (Beta-lactamase [6]): > 59.6 µM (inactive)
